Source: patent US20100004325A1, “Use of Baicalein As Prolyl Hydroxylase 2 Inhibitor” (Korea Institute of Science and Technology, priority 2007, published 2010)
Several values for one entry are separate records, joined by “and”; a condition that tells them apart may be missing. Equal values may be shown once.

Columns and labels:
[1] = target: T1, F-HyP564 peptide / VBC protein (Homo sapiens, UniProt P40337); assay: Fluorescence polarization of F-HyP564 peptide bound to VBC protein (counter-test); type: binding
T1 construct: made in house; host or cells: E. coli BL21 (DE3), co-expression of pGEX4T-VHL-EB and pDEV-EC (pET29b)

[2] = system: HIF-1α binding to hypoxia-response element (HRE); assay: p(HRE)4-luciferase reporter assay in HeLa cells; type: cell-based; conditions: 20 μM baicalein, 16 hours
Method: In order to examine the binding of the HIF-1α stabilized by baicalein in normoxia with HRE existed on a target gene, luciferase assay was conducted as follows. Specifically, HeLa cells (5×10^4 cells/well) were cultured on a 24-well plate, and 100 ng of p(HRE)4-luciferase plasmid and 50 ng of β-galactosidase expression vector, pCHO110, were co-transfected thereinto. As a control to 20 μM of baicalein, DFO (deferoxamine) and CoCl2 were added to the cells, respectively, and cultured for 16 hours. The cell extract was obtained, and the luciferase activity thereof was measured by luminometer (Tuner Designs).
The value was normalized for the β-galactosidase activity value and the total amount of protein measured by BCA protein analysis (Sigma).

HIF-1α = HIF-1α protein expression in HepG2 cells, western blotting; type: cell-based; conditions: HepG2, normoxia, 6 hours; increase similar to HIF-1α in hypoxia
Method: In order to examine the change of the HIF-1α protein expression by baicalein in a cell, HepG2 strain was grown to 80% confluence on a 60 mm tissue culture plate. Baicalein with increasing concentrations was added to the cultured cell and further cultured in normoxia for 6 hours, and as controls, same cell mixtures were cultured in hypoxia. The cells were washed with 4° C. phosphate based saline buffer, and eluted with radioimmunoprecipitation analysis solution containing 150 mM NaCl, 1% Nonidet P-40, 0.5% deoxycholate, 0.1% SDS, 50 mM Tris (pH 7.4). 100 μg/ml PMSF, 10 μg/ml leupeptin, 1 μg/ml antipain, 10 μg/ml aprotinin, 50 mM β-glycerophosphate, 25 mM NaF, 20 mM EGTA, 1 mM DTT and 1 mM Na3VO4. Then, the cells were centrifuged, and the cell extracts thus obtained were quantified by Bradford protein assay. In order to perform the immunoblot against HIF-1α, 20 μg of the cell extract was suspended in SDS sample buffer, and heated in a water bath for 5 min to completely solublize the protein structure. […] The membrane was treated with ECL solution and exposed to X-ray film for 5 min, and finally the HIF-1α protein was detected, and subjected to luminescence image analyzer (Model LAS-3000, Fuji) for detailed analysis.

FIH1 = target: T2, FIH1 (Homo sapiens, UniProt Q9NWT6); assay: Asparagine hydroxylation of F-N803 peptide by FIH1, MALDI mass spectrometry; type: biochemical; conditions: 20 μM baicalein, 0.55 μg/μl His-FIH1, 2 hours, room temperature
T2 construct: made in house; host or cells: E. coli BL21 (DE3), pET-28a
Method: Further, in order to examine the inhibitory activity of baicalein against FIH1, 20 μM of baicalein and 0.55 μg/μl of His-FIH1 were mixed in a buffer (50 mM Tris-HCl, pH 7.5, 5 mM KCl, 1.5 mM MgCl2) supplemented with ascorbic acid (final concentration: 400 μM) and α-ketoglutarate (final concentration: 100 μM). Then, 4 μM of the F-HIF-1α peptide containing the 788th-822nd amino acid was added to the resulting mixture, and reacted at room temperature for 2 hours. Excess salts in the reactant were removed by ZipTipC18, and the eluted reactant was analyzed by MALDI mass spectrometry.

PHD2 [3] = target: T3, PHD2 (Homo sapiens, UniProt Q9GZT9); assay: Fluorescence polarization assay of PHD2-mediated hydroxylation of F-P564 peptide (binding to VBC protein); type: biochemical; conditions: proline hydroxylation 20 min, baicalein 0 to 200 μM, 500 nM VBC protein; read-out: concentration of baicalein that results in 50% inhibition of the PHD2 activity (IC50)
T3 construct: made in house; host or cells: E. coli BL21 (DE3), pGEX-4T-1
Method: In order to screen a PHD2 inhibitor, 1040 compounds having biological activities (NINDS Custom Collection II, MicroSource Discovery Systems) were used. First, 1 μl of each compound was aliquoted into a 1.5 ml tube at the final concentration of 20 μM. Then, GST-PHD2 (final concentration: 0.2-0.3 μg/μl) was mixed with the each compound, followed by adding a buffer (20 mM Tris-HCl, pH 8.0, 100 mM NaCl, 1 mM EDTA, 1 mM PMSF, 0.5% NP-40) thereto. […]
[…] After mixing at room temperature, the resulting mixture was transferred to a 96-well plate, and fluorescence polarization was measured by using VICTOR (Perkin-Elmer).
After obtaining the fluorescence polarization value of the mixture of the F-Hy564 peptide ([…]) in the buffer by VICTOR, the PHD2 inhibitory activity of each compound was represented in percentage based on that the fluorescence polarization value. 26 compounds with at least 60% of PHD2 inhibitory activity were randomly selected. […]
In order to examine the PHD2 inhibitory activity of baicalein, proline hydroxylation was performed for 20 min with increasing final concentrations of baicalein from 0 to 200 μM. […] Fluorescence polarization of the resulting mixture was measured by using a fluorometer (Perkin-Elmer), and the size of slit was 6 nm and the integration time was 5 sec.

VEGF [4] = assay: VEGF mRNA expression in HepG2 cells, RT-PCR; type: cell-based; conditions: HepG2, normoxia
Method: In order to examine the expression of VEGF known as a representative target gene of the HIF-1α, RT-PCR was conducted as follows. In normoxia, DMSO was treated to HepG2 cells as a negative control, and its influence was observed. As a positive control, HepG2 cells were cultured in hypoxia for 16 hours. In order to amplify cDNA of VEGF mRNA expressed in the cell, the RNA of the cultured cell was subjected to RT-PCR by using forward primer (5′-ccatgaactttctgctdtctt-3′, SEQ ID NO: 5) and reverse primer (5′-[…]-3′, SEQ ID NO: 6). Further, in order to amplify cDNA of 18s rRNA, the RNA of the cultured cell was subjected to RT-PCR by using forward primer (5′-[…]-3′, SEQ ID NO: 7) and reverse primer (5′-[…]-3′, SEQ ID NO: 8) (Table 2).
The amplified product was subjected to electrophoresis on 1.5% agarose-gel, and the mRNA expression was quantitated by phosphoimager (Model Las3000, Fuji) (see FIG. 6a).

VEGF [5] = assay: VEGF secretion by HeLa cells, ELISA; type: cell-based, human; conditions: 20 μM baicalein, 16 hours, compared with DMSO control
Method: In order to examine the secretion change of the VEGF protein known as a secretion protein synthesized in a cell, its cell culture solution was subjected to ELISA as follows. Specifically, HeLa cells aliquoted on a 24-well plate were cultured for 24-48 hour, and DMSO, CoCl2 (200 μM), DFO (125 μM) and baicalein (20 μM) were treated thereto, respectively. After culturing for 16 hours, the cell solution was recovered and centrifuged to separate supernatant. The supernatant was aliquoted on an antibody-coated well plate using human VEGF Quantikine ELISA kit (R&D Systems) to monitor the amount of VEGF in the supernatant. Then, an antibody for VEGF was treated to each well, followed by measuring the amount of the VEGF using luminometer.

12-lipoxygenase = conditions: Daotai et al., JBC 281; cited from earlier work
PHD2 [6] = target: T3, PHD2; assay: Proline hydroxylation of B-P564 peptide by PHD2, MALDI mass spectrometry; type: biochemical; conditions: 800 μM baicalein, 1.4 μg/μl PHD2, 2 hours, room temperature
Method: For the analysis of proline hydroxylation, 800 μM of baicalein and 1.4 μg/μl of PHD2 were mixed in a buffer (20 mM Tris-HCl, pH 8.0, 100 mM NaCl, 1 mM EDTA, 1 mM PMSF, 0.5% NP-40) supplemented with ascorbic acid (final concentration: 400 μM) and α-ketoglutarate (final concentration: 100 μM). Then, 3 μM of the B-P564 peptide was added to the resulting mixture, and reacted at room temperature for 2 hours. Excess salts in the enzyme reactant were removed by ZipTipC18 (Millipore), and the eluted reactant was analyzed by MALDI mass spectrometry.

Q: What does the source list for `O=c1cc(-c2ccccc2)oc2cc(O)c(O)c(O)c12` [baicalein]?
A: fluorescence polarization value of F-HyP564 peptide with VBC protein ([1]; baicalein at the highest concentration, 500 nM VBC protein): did not decrease; effect on interaction of F-HyP564 with the VBC protein (fluorescence polarization) ([1]; up to 20 μM of baicalein): did not affect; luciferase activity normalized for total protein amount [2]: a similar result was obtained; concentration of baicalein at which HIF-1α protein expression increased (HIF-1α): more than 50 μM; hydroxylation of the asparagine residue of F-HIF-1α peptide (788th-822nd amino acid) (FIH1): not hydroxylated; IC50 (PHD2 [3]): ~15 µM and 15 µM; amount of the expressed VEGF (FIGS. 6a and 6b) (VEGF [4]): increases; amount of VEGF in the supernatant (VEGF [5]): significantly increase; activity of 12-lipoxygenase (12-lipoxygenase): inhibits; hydroxylation of the proline residue of B-P564 peptide (PHD2 [6]): not hydroxylated
